In paper PMC12598866, “A Comparative Study of Virucidal and Virustatic Multivalent Entry Inhibitors” (The Journal of Physical Chemistry. B, 2025):
Like-named read-outs stand apart in the source and are kept apart here.

Experiments:
HSV-2 [1] = assay: HSV-2 inhibition assay (plaque reduction on Vero cells, pretreatment); assay type: cell-based, herpes simplex virus type 2; conditions: for IC50: Human alphaherpesvirus 2, Vero, dose–response, Vero cells
Procedure: The inhibitory effect of compounds on HSV-2 was evaluated by plaque reduction assay. Vero cells were plated 24 h before the experiment in 24-well plates with a seeding density of 10^5 cells/well. Serial dilutions of compounds in DMEM medium (2% FBS, 1% P/S) were prepared, followed by the addition of aliquots of HSV-2 such that the final titer of the virus was 200 pfu/mL (with MOI = 0.0005). Compounds/virus mixtures were incubated at 37 °C for 1 h and added to the cells (250 μL/well). Followed by incubation at 37 °C for 1 h, the viral inoculum was removed. The cells were overlaid with DMEM medium containing 1.2% methylcellulose, 2% FBS, and 1% P/S. After 48 h of incubation at 37 °C, 5% CO2, the cells were fixed and stained with 0.1% crystal violet in 20% ethanol. Finally, the plaques were counted. Each group of experiments in the inhibition assay was performed in triplicate. The concentration producing a 50% reduction in plaque formation was determined using Prism 10 software (GraphPad Software, USA) by comparing compound-treated and untreated cells. Infectivity was calculated as the number of plaques in compound-treated cells/number of plaques in untreated cells × 100%.

H1N1N09 [2] = assay: Influenza inhibition assay (ICC on MDCK cells); assay type: cell-based, Influenza A/Netherlands/602/2009 (H1N1); conditions: Influenza A virus, dose–response
Flu B = assay: Influenza inhibition assay (ICC on MDCK cells); assay type: cell-based; conditions: dose–response
HSV-2 [3] = assay: Growth of viruses in the presence of compounds (posttreatment), HSV-2; assay type: cell-based, herpes simplex virus type 2; conditions: for IC50: Human alphaherpesvirus 2, Vero, posttreatment condition, Vero cells
[4] = tested on: NO production in RAW 264.7 cells; assay: NO production in LPS-stimulated macrophages; assay type: cell-based; conditions: Mus musculus, RAW264.7; RAW 264.7 pretreated 2 h with MEIs, then LPS 1 μg/mL for 24 h
Procedure: To evaluate the anti-inflammatory potential of MEIs, we investigated their ability to reduce the level of NO production in macrophages. RAW 264.7 cells were pretreated with the different concentrations of MEIs for 2 h, followed by stimulation with lipopolysaccharide (LPS) (1 μg/mL) for 24 h to induce inflammation. […] However, cotreatment with MEIs led to a reduction in NO levels, confirming their anti-inflammatory effect.

HSV-2 [5] = tested on: HSV-2; design: method as in Zhu et al., 2024 (citation number not given); conditions: earlier paper of the authors on benzene-core MEIs; ref Zhu et al., 2024 (citation number not given); read-out: IC50 against HSV-2; cited from earlier work
HSV-2 [6] = tested on: HSV-2; design: method as in Zhu et al., 2024 (citation number not given); conditions: earlier paper of the authors; ref Zhu et al., 2024 (citation number not given); cited from earlier work
H1N1N09 [7] = assay: Influenza virucidal assay; assay type: cell-based, Influenza A/Netherlands/602/2009 (H1N1)
[8] = HSV-2 inhibition, concentration intended to inhibit infection by at least 90 and 99%

| SMILES | IC99 (HSV-2 [1]; [8]) | IC50 (HSV-2 [1]) | IC50 (H1N1N09 [2]) | IC50 (Flu B) | IC50 (HSV-2 [3]) | IC50 [4] | IC50 (HSV-2 [5]) | inhibition mechanism with HSV-2 (HSV-2 [6]) | IC99 (HSV-2 [1]) | Virucidal activity, H1N1N09 (H1N1N09 [7]) | fold reduction in IC50, posttreatment vs pretreatment (HSV-2 [3]; HSV-2) | Virucidal activity, V-1 (HSV-1) | Virucidal activity, H1N1 clinical (H1N1 clinical) | Virucidal activity, H3N2 (H3N2) | Virucidal activity, FluB (FluB) |
| --- | --- | --- | --- | --- | --- | --- | --- | --- | --- | --- | --- | --- | --- | --- | --- |
| O=S(=O)(O)CCCCCCCCCCCSCc1cc2c(cc1CSCCCCCCCCCCCS(=O)(=O)O)OCCOCCOc1cc(CSCCCCCCCCCCCS(=O)(=O)O)c(CSCCCCCCCCCCCS(=O)(=O)O)cc1OCCOCCO2 [C4C11SO3] | 408 ± 1.5 µM | 18.5 ± 5.2 µM | 15.8 ± 3.1 µM | 7.7 ± 3.75 µM | 12.3 ± 0.76 µM | 173.8 ± 1.52 µM | – | – | – | – | – | – | – | – | – |
| O=S(=O)(O)OCCCCCCCCCCCSCc1cc(CSCCCCCCCCCCCOS(=O)(=O)O)cc(CSCCCCCCCCCCCOS(=O)(=O)O)c1 [B3C11SO4] | 103.8 ± 8.3 µM | 43 ± 8.3 µM | 0.9 ± 0.05 µM | 0.4 ± 0.04 µM | 18 ± 1.13 µM | 152.8 ± 1.27 µM | 26.2 µM | virucidal | – | – | – | – | – | – | – |
| O=S(=O)(O)CCCCCCCCCCCSCc1cc(CSCCCCCCCCCCCS(=O)(=O)O)cc(CSCCCCCCCCCCCS(=O)(=O)O)c1 [B3C11SO3] | – | 88.5 ± 7.6 µM | 35.2 ± 4.7 µM | 324 ± 103 µM | 10.3 ± 1.17 µM | – | – | virustatic | 1092 ± 7.6 µM | S | approximately 9 fold | S | S | S | S |
| O=S(=O)(O)OCCCCCCCCCCCSCc1cc2c(cc1CSCCCCCCCCCCCOS(=O)(=O)O)OCCOCCOc1cc(CSCCCCCCCCCCCOS(=O)(=O)O)c(CSCCCCCCCCCCCOS(=O)(=O)O)cc1OCCOCCO2 [C4C11SO4] | 67.47 ± 5.2 µM | 9.8 ± 1.5 µM | 80.9 ± 13.7 µM | 47.9 ± 9.38 µM | 4.8 ± 0.7 µM | 66.1 ± 1.23 µM | – | – | – | – | – | – | – | – | – |
